These compounds were tested against human NaV 1.8 (Homo sapiens, UniProt Q9Y5Y9) (assay: E-VIPR assay for detecting and measuring NaV inhibition properties). Settings: E-VIPR assay conducted in the presence of human serum; HEK cells expressing truncated human NaV 1.8; read-out: IC50.
Assay type: cell-based
Procedure, shortened: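 Membrane-potential (coumarin/oxonol) readout after 10 s of 10 Hz biphasic electrical stimulation on E-VIPR. Compounds: 11-point 3-fold dilutions, […], 0.625% DMSO, 30 min at room temperature, human serum optional. Cells: HEK expressing truncated human NaV1.8 co-transduced with KIR2.1.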

human NaV 1.8, sequence (Q9Y5Y9 whole entry, looked up, the tested form may be a part): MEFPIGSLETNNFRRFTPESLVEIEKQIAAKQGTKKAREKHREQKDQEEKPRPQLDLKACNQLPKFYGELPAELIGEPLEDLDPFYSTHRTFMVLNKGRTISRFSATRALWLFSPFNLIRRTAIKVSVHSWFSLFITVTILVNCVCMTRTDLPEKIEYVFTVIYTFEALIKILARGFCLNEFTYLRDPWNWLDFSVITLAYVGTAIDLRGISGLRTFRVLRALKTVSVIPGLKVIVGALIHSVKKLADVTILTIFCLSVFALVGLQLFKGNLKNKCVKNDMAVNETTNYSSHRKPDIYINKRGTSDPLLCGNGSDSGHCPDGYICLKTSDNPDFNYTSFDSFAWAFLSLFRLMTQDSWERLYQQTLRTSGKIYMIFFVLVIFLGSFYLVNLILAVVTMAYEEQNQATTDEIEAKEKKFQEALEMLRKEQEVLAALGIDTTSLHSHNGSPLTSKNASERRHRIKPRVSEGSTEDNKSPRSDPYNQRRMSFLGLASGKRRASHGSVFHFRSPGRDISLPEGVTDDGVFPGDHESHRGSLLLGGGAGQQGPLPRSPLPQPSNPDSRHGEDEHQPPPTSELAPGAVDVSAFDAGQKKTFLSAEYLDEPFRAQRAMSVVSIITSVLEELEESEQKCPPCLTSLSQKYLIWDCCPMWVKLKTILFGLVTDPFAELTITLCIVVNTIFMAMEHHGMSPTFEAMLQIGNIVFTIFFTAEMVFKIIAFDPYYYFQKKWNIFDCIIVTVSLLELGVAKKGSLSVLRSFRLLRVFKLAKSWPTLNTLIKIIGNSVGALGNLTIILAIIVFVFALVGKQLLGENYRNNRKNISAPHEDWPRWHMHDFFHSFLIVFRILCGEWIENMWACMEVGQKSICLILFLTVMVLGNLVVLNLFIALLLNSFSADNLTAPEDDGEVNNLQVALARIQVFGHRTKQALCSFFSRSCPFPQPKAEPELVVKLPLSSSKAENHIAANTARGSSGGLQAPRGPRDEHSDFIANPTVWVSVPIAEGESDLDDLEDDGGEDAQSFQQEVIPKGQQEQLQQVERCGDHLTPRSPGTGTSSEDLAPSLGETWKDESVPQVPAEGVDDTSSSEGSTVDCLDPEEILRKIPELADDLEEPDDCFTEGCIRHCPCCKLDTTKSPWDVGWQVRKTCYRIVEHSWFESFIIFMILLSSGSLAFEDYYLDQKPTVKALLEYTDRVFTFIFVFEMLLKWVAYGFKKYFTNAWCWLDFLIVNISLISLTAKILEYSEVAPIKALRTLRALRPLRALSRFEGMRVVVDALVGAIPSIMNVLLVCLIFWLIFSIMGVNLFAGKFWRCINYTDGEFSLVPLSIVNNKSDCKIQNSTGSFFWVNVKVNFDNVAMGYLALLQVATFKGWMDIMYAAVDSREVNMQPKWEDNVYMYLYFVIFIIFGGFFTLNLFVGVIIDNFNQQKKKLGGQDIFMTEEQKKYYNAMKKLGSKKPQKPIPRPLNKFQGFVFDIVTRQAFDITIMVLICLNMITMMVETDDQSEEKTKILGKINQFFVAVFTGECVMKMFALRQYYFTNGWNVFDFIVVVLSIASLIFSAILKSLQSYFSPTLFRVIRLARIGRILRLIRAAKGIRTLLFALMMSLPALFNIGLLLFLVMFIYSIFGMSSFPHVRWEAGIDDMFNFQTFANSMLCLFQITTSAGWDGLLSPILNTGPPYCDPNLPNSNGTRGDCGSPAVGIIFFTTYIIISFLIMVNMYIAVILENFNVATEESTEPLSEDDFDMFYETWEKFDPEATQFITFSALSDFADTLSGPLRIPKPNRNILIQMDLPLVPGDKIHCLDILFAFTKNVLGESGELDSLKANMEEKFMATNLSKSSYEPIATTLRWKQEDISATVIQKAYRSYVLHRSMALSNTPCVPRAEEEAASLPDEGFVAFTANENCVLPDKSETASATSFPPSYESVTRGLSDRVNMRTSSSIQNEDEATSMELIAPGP

Compound | IC50 [µM]
COc1cc(OC(F)(F)F)ccc1Oc1cc(C2CC2)c(C2CC2)nc1C(=O)Nc1ccnc(C(N)=O)c1 [Compound 201, N-(2-carbamoyl-4-pyridyl)-5,6-dicyclopropyl-3-[2-methoxy-4-(trifluoromethoxy)phenoxy]pyridine-2-carboxamide] | 0.53
COc1cc(OC(F)(F)F)ccc1Oc1ccc(OC2CC(F)(F)C2)c(C)c1C(=O)Nc1ccnc(C(N)=O)c1 [Compound 204, 4-[[3-(3,3-Difluorocyclobutoxy)-6-[2-Methoxy-4-(Trifluoromethoxy)Phenoxy]-2-Methyl-Benzoyl]Amino]Pyridine-2-Carboxamide] | 0.17
NC(=O)c1ccc(NC(=O)c2c(Oc3ccc(OC(F)(F)F)cc3C3CC3)ccc(C(F)(F)F)c2F)cn1 [Compound 206, 5-[[6-[2-cyclopropyl-4-(trifluoromethoxy)phenoxy]-2-fluoro-3-(trifluoromethyl)benzoyl]amino]pyridine-2-carboxamide] | 0.36
Cc1c(Oc2ccc(C(F)(F)F)c(F)c2C(=O)Nc2ccc(C(N)=O)nc2)ccc(F)c1F [Compound 207, 5-[[6-(3,4-difluoro-2-methyl-phenoxy)-2-fluoro-3-(trifluoromethyl)benzoyl]amino]pyridine-2-carboxamide] | 0.37
Cc1cc(Cl)cc(C)c1Oc1ccc(C(F)(F)F)c(F)c1C(=O)Nc1ccc(C(N)=O)nc1 [Compound 208, 5-[[6-(4-chloro-2,6-dimethyl-phenoxy)-2-fluoro-3-(trifluoromethyl)benzoyl]amino]pyridine-2-carboxamide] | > 3
COc1cc(C(F)(F)C(F)(F)F)ccc1Oc1ccc(C(F)(F)F)c(F)c1C(=O)Nc1ccc(C(N)=O)nc1 [Compound 210, 5-[[2-fluoro-6-[2-methoxy-4-(1,1,2,2,2-pentafluoroethyl)phenoxy]-3-(trifluoromethyl)benzoyl]amino]pyridine-2-carboxamide] | 0.28
NC(=O)c1ccc(NC(=O)c2c(Oc3c(F)cc(F)cc3F)ccc(C(F)(F)F)c2F)cn1 [Compound 212, 5-[[2-fluoro-3-(trifluoromethyl)-6-(2,4,6-trifluorophenoxy)benzoyl]amino]pyridine-2-carboxamide] | > 3
Cc1cc(Cl)cc(Cl)c1Oc1ccc(C(F)(F)F)c(F)c1C(=O)Nc1ccc(C(N)=O)nc1 [Compound 213, 5-[[6-(2,4-dichloro-6-methyl-phenoxy)-2-fluoro-3-(trifluoromethyl)benzoyl]amino]pyridine-2-carboxamide] | > 3
NC(=O)c1ccc(NC(=O)c2c(Oc3ccc(F)c(F)c3F)ccc(C(F)(F)F)c2F)cn1 [Compound 215, 5-[[2-fluoro-3-(trifluoromethyl)-6-(2,3,4-trifluorophenoxy)benzoyl]amino]pyridine-2-carboxamide] | 0.57
NC(=O)c1ccc(NC(=O)c2c(Oc3ccc(OC(F)(F)F)c(F)c3)ccc(C(F)(F)F)c2F)cn1 [Compound 216, 5-[[2-fluoro-6-[3-fluoro-4-(trifluoromethoxy)phenoxy]-3-(trifluoromethyl)benzoyl]amino]pyridine-2-carboxamide] | 0.34
NC(=O)c1ccc(NC(=O)c2c(Oc3ccc(OC(F)(F)F)c(Cl)c3)ccc(C(F)(F)F)c2F)cn1 [Compound 217, 5-[[6-[3-chloro-4-(trifluoromethoxy)phenoxy]-2-fluoro-3-(trifluoromethyl)benzoyl]amino]pyridine-2-carboxamide] | 0.16
Cc1cc(Cl)ccc1Oc1ccc(C(F)(F)F)c(F)c1C(=O)Nc1ccc(C(N)=O)nc1 [Compound 218, 5-[[6-(4-chloro-2-methyl-phenoxy)-2-fluoro-3-(trifluoromethyl)benzoyl]amino]pyridine-2-carboxamide] | 0.735
NC(=O)c1ccc(NC(=O)c2c(Oc3ccc(Cl)cc3F)ccc(C(F)(F)F)c2F)cn1 [Compound 219, 5-[[6-(4-chloro-2-fluoro-phenoxy)-2-fluoro-3-(trifluoromethyl)benzoyl]amino]pyridine-2-carboxamide] | 1.5
Cc1cc(Cl)cc(C)c1Oc1ccc(C(F)(F)F)c(C)c1C(=O)Nc1ccc(C(N)=O)nc1 [Compound 229, 5-[[6-(4-chloro-2,6-dimethyl-phenoxy)-2-methyl-3-(trifluoromethyl)benzoyl]amino]pyridine-2-carboxamide] | > 3
Cc1cc(Cl)ccc1Oc1ccc(C(F)(F)F)c(C)c1C(=O)Nc1ccc(C(N)=O)nc1 [Compound 233, 5-[[6-(4-chloro-2-methyl-phenoxy)-2-methyl-3-(trifluoromethyl)benzoyl]amino]pyridine-2-carboxamide] | 1.4

The remaining lines, values ahead:

IC50 [µM] | Compound
0.006 | COc1cc(OC(F)(F)F)ccc1Oc1cc2c(c(C)c1C(=O)Nc1ccnc(C(N)=O)c1)OC(F)(F)O2 [Compound 202, 4-[[2,2-difluoro-6-[2-methoxy-4-(trifluoromethoxy)phenoxy]-4-methyl-1,3-benzodioxole-5-carbonyl]amino]pyridine-2-carboxamide]
0.14 | COc1cc(OC(F)(F)F)ccc1Oc1cc2c(c(C)c1C(=O)Nc1ccc(C(N)=O)nc1)OC(F)(F)O2 [Compound 203]
1.1 | COc1cc(OC(F)(F)F)ccc1Oc1cc(C2CC2)c(C2CC2)nc1C(=O)Nc1ccc(C(N)=O)nc1 [Compound 205, N-(6-carbamoyl-3-pyridyl)-5,6-dicyclopropyl-3-[2-methoxy-4-(trifluoromethoxy)phenoxy]pyridine-2-carboxamide]
0.008 | COc1c(Oc2ccc(C(F)(F)F)c(F)c2C(=O)Nc2ccc(C(N)=O)nc2)ccc(OC(F)(F)F)c1F [Compound 209, 5-[[2-fluoro-6-[3-fluoro-2-methoxy-4-(trifluoromethoxy)phenoxy]-3-(trifluoromethyl)benzoyl]amino]pyridine-2-carboxamide]
> 3 | COc1cc(C)cc(OC)c1Oc1ccc(C(F)(F)F)c(F)c1C(=O)Nc1ccc(C(N)=O)nc1 [Compound 211, 5-[[6-(2,6-dimethoxy-4-methyl-phenoxy)-2-fluoro-3-(trifluoromethyl)benzoyl]amino]pyridine-2-carboxamide]
> 3 | Cc1c(F)ccc(Oc2ccc(C(F)(F)F)c(F)c2C(=O)Nc2ccc(C(N)=O)nc2)c1C [Compound 214, 5-[[2-fluoro-6-(4-fluoro-2,3-dimethyl-phenoxy)-3-(trifluoromethyl)benzoyl]amino]pyridine-2-carboxamide]
0.53 | COc1cc(Cl)ccc1Oc1ccc(C(F)(F)F)c(F)c1C(=O)Nc1ccc(C(N)=O)nc1 [Compound 220, 5-[[6-(4-chloro-2-methoxy-phenoxy)-2-fluoro-3-(trifluoromethyl)benzoyl]amino]pyridine-2-carboxamide]
0.43 | NC(=O)c1ccc(NC(=O)c2c(Oc3ccc(OC(F)(F)F)cc3F)ccc(C(F)(F)F)c2F)cn1 [Compound 221, 5-[[2-fluoro-6-[2-fluoro-4-(trifluoromethoxy)phenoxy]-3-(trifluoromethyl)benzoyl]amino]pyridine-2-carboxamide]
0.12 | Cc1cc(OC(F)(F)F)ccc1Oc1ccc(C(F)(F)F)c(F)c1C(=O)Nc1ccc(C(N)=O)nc1 [Compound 222, 5-[[2-fluoro-6-[2-methyl-4-(trifluoromethoxy)phenoxy]-3-(trifluoromethyl)benzoyl]amino]pyridine-2-carboxamide]
0.13 | NC(=O)c1ccc(NC(=O)c2c(Oc3ccc(OC(F)(F)F)cc3Cl)ccc(C(F)(F)F)c2F)cn1 [Compound 223, 5-[[6-[2-chloro-4-(trifluoromethoxy)phenoxy]-2-fluoro-3-(trifluoromethyl)benzoyl]amino]pyridine-2-carboxamide]
0.006 | COc1c(Oc2ccc(C(F)(F)F)c(C)c2C(=O)Nc2ccc(C(N)=O)nc2)ccc(OC(F)(F)F)c1F [Compound 224, 5-[[6-[3-fluoro-2-methoxy-4-(trifluoromethoxy)phenoxy]-2-methyl-3-(trifluoromethyl)benzoyl]amino]pyridine-2-carboxamide]
1.5 | Cc1c(C(F)(F)F)ccc(Oc2ccc(F)c(F)c2F)c1C(=O)Nc1ccc(C(N)=O)nc1 [Compound 225, 5-[[2-methyl-3-(trifluoromethyl)-6-(2,3,4-trifluorophenoxy)benzoyl]amino]pyridine-2-carboxamide]
0.14 | Cc1c(C(F)(F)F)ccc(Oc2ccc(OC(F)(F)F)cc2C2CC2)c1C(=O)Nc1ccc(C(N)=O)nc1 [Compound 226, 5-[[6-[2-cyclopropyl-4-(trifluoromethoxy)phenoxy]-2-methyl-3-(trifluoromethyl)benzoyl]amino]pyridine-2-carboxamide]
0.61 | Cc1c(Oc2ccc(C(F)(F)F)c(C)c2C(=O)Nc2ccc(C(N)=O)nc2)ccc(F)c1F [Compound 227, 5-[[6-(3,4-difluoro-2-methyl-phenoxy)-2-methyl-3-(trifluoromethyl)benzoyl]amino]pyridine-2-carboxamide]
> 3 | COc1cc(C)cc(OC)c1Oc1ccc(C(F)(F)F)c(C)c1C(=O)Nc1ccc(C(N)=O)nc1 [Compound 228, 5-[[6-(2,6-dimethoxy-4-methyl-phenoxy)-2-methyl-3-(trifluoromethyl)benzoyl]amino]pyridine-2-carboxamide]
> 3 | Cc1c(C(F)(F)F)ccc(Oc2c(F)cc(F)cc2F)c1C(=O)Nc1ccc(C(N)=O)nc1 [Compound 230, 5-[[2-methyl-3-(trifluoromethyl)-6-(2,4,6-trifluorophenoxy)benzoyl]amino]pyridine-2-carboxamide]
> 3 | Cc1c(F)ccc(Oc2ccc(C(F)(F)F)c(C)c2C(=O)Nc2ccc(C(N)=O)nc2)c1C [Compound 231, 5-[[6-(4-fluoro-2,3-dimethyl-phenoxy)-2-methyl-3-(trifluoromethyl)benzoyl]amino]pyridine-2-carboxamide]
1.5 | COc1cc(F)ccc1Oc1ccc(C(F)(F)F)c(C)c1C(=O)Nc1ccc(C(N)=O)nc1 [Compound 232, 5-[[6-(4-fluoro-2-methoxy-phenoxy)-2-methyl-3-(trifluoromethyl)benzoyl]amino]pyridine-2-carboxamide]

From patent US12441703B2, “Carboxamides as modulators of sodium channels” (VERTEX PHARMACEUTICALS INCORPORATED, priority 2019, dated 2025)
